Here are results for 7 substances from patent US20060216302A1, “Immunological markers” (priority 2003, published 2006).

The subject of test [1] is human sera. As to the kind of experiment: ELISA cross-reactivity of candidate markers with human sera (Example 9). The following applies: human serum diluted 1/1000, goat anti-human-HRP, non-specific binding subtracted. As to the method: Four samples of human sera were obtained with appropriate consent. 20 The frozen samples of cell-free sera were thawed and diluted to 1/1000 in phosphate buffered saline at pH 7.0. Aliquots (100 ul) of these diluted antisera were added to ELISA plates pre-adsorbed with the biomarkers as described in Table 1. A goat anti-human-HRP secondary antibody was used to quantitate the amount of antibody bound to the various marker peptides. Non-specific binding (determined by plating antisera onto PVA coated wells) was subtracted from the readings of the individual marker wells.

Test [2] relates to Lewis rats. As to the kind of experiment: Antigenicity and cross-reactivity in rats inoculated with marker-KLH conjugates, serum ELISA (Example 7). Conditions: for Candidate Marker Antibody Reactivity RBM1 / Candidate Marker Antibody Reactivity RBM2 / Candidate Marker Antibody Reactivity RBM4 / Candidate Marker Antibody Reactivity RBM5 / Candidate Marker Antibody Reactivity RBM6 / Candidate Marker Antibody Reactivity RBM7: Table 3; for Candidate Marker Antibody Reactivity RBM1: serum (1/100) of Lewis rats inoculated s.c. with 1.0 mg marker-KLH conjugate in Freund's incomplete adjuvant, day 14-21, ELISA wells coated with RBM1; for Candidate Marker Antibody Reactivity RBM2 / Candidate Marker Antibody Reactivity RBM4 / Candidate Marker Antibody Reactivity RBM5 / Candidate Marker Antibody Reactivity RBM6 / Candidate Marker Antibody Reactivity RBM7: serum (1/100) of Lewis rats inoculated with marker-KLH conjugate; for Candidate Marker Antibody Reactivity RBM2: ELISA wells coated with RBM2; for Candidate Marker Antibody Reactivity RBM4: ELISA wells coated with RBM4; for Candidate Marker Antibody Reactivity RBM5: ELISA wells coated with RBM5; for Candidate Marker Antibody Reactivity RBM6: ELISA wells coated with RBM6; for Candidate Marker Antibody Reactivity RBM7: ELISA wells coated with RBM7; for Relative Absorbance ±SE at 405 nm, Candidate Marker RBM1 / Relative Absorbance ±SE at 405 nm, Candidate Marker RBM4 / Relative Absorbance ±SE at 405 nm, Candidate Marker RBM5 / Relative Absorbance ±SE at 405 nm, Candidate Marker RBM6: Table 4, N = 3, rats inoculated with marker-KLH conjugate, ** P < .01; for Relative Absorbance ±SE at 405 nm, Candidate Marker RBM1: ELISA against RBM1; for Relative Absorbance ±SE at 405 nm, Candidate Marker RBM4: ELISA against RBM4; for Relative Absorbance ±SE at 405 nm, Candidate Marker RBM5: ELISA against RBM5; for Relative Absorbance ±SE at 405 nm, Candidate Marker RBM6: ELISA against RBM6; for Cross-reactivity among the candidate markers: text summary of Table 3, rat sera after marker-KLH inoculation. It is filed as in vivo, rat. (In general: An ELISA detects its analyte on a solid surface through an enzyme-linked reagent.)

In test [3] the test system is polyclonal sera against a range of infectious agents and hormones. Nature of the test: ELISA cross-reactivity screen, whole panel of antisera. It is filed as binding. The following applies: whole panel of 12 antisera.
Test [4] concerns rats. As to the kind of experiment: Antigenicity in rats inoculated with free marker peptides, serum ELISA (Example 8). Format: in vivo, rat. Conditions: Table 5; for Candidate Marker Antibody Reactivity RBM1: rats inoculated with 1 mg free peptide (not KLH-conjugated) in Freund's incomplete adjuvant, ELISA against RBM1; for Candidate Marker Antibody Reactivity RBM2 / Candidate Marker Antibody Reactivity RBM3 / Candidate Marker Antibody Reactivity RBM4 / Candidate Marker Antibody Reactivity RBM5 / Candidate Marker Antibody Reactivity RBM6 / Candidate Marker Antibody Reactivity RBM7: rats inoculated with free peptide; for Candidate Marker Antibody Reactivity RBM2: ELISA against RBM2; for Candidate Marker Antibody Reactivity RBM3: ELISA against RBM3; for Candidate Marker Antibody Reactivity RBM4: ELISA against RBM4; for Candidate Marker Antibody Reactivity RBM5: ELISA against RBM5; for Candidate Marker Antibody Reactivity RBM6: ELISA against RBM6; for Candidate Marker Antibody Reactivity RBM7: ELISA against RBM7; for Antigenicity (measurable antibody response) of free marker peptide / Interference and cross-reaction with other marker candidates: rats; for Antigenicity (measurable antibody response) of free marker peptide: free peptide not conjugated to KLH; for Interference and cross-reaction with other marker candidates: free peptide.

Ends that are not written are not given here.

As to “EGVYVPV [RBM5, peptide derived from the 5→3 reading of the cDNA encoding angiotensin II; T3 prints Glu-Gly-Val-Tyr-Val-His-Pro-Val]”, in test [1], the “Candidate Marker Antibody Reactivity, Serum Sample 1” value was “.22”; the “Candidate Marker Antibody Reactivity, Serum Sample 2” value is “.21”; the “Candidate Marker Antibody Reactivity, Serum Sample 3” value is “−.02”; the “Candidate Marker Antibody Reactivity, Serum Sample 4” value is listed as “−.01”. Besides, in test [2], the “Candidate Marker Antibody Reactivity RBM1” value is recorded as “−.018”, the “Candidate Marker Antibody Reactivity RBM2” value is “.068”, the “Candidate Marker Antibody Reactivity RBM4” value is listed as “−.231” and the “Candidate Marker Antibody Reactivity RBM5” value was “.101”. Moreover, in test [2], the “Candidate Marker Antibody Reactivity RBM6” value is reported as “.006”; the “Candidate Marker Antibody Reactivity RBM7” value is listed as “−.058”; the “Relative Absorbance ±SE at 405 nm, Candidate Marker RBM1” value is “.57 ± .25”; the “Relative Absorbance ±SE at 405 nm, Candidate Marker RBM4” value was “.15 ± .07”. Also, in test [2], the “Relative Absorbance ±SE at 405 nm, Candidate Marker RBM5” value was 1.5 ± .44**; the “Relative Absorbance ±SE at 405 nm, Candidate Marker RBM6” value is “.50 ± .02”; the “Cross-reactivity among the candidate markers” value was “cross-react weakly, but consistently”.
For the substance WFYMYFWFYMYF [RBM3], in test [1], the “Candidate Marker Antibody Reactivity, Serum Sample 1” value was “.07”; the “Candidate Marker Antibody Reactivity, Serum Sample 2” value is recorded as “.05”; the “Candidate Marker Antibody Reactivity, Serum Sample 3” value is “−.07”; the “Candidate Marker Antibody Reactivity, Serum Sample 4” value was “−.01”.
Consider “RLAHMYVGKT [RBM4, antisense peptide from angiotensin II complementary DNA, 3→5 direction; KLH conjugate for inoculation]”, for which the “Recognition by any antiserum tested” value in test [3] was “did not cross-react”. Moreover, in test [1], the “Candidate Marker Antibody Reactivity, Serum Sample 1” value is “.08”; the “Candidate Marker Antibody Reactivity, Serum Sample 2” value is listed as “.20”; the “Candidate Marker Antibody Reactivity, Serum Sample 3” value was “−.16”; the “Candidate Marker Antibody Reactivity, Serum Sample 4” value is “−.02”. For the same substance, in test [2], the “Candidate Marker Antibody Reactivity RBM1” value is “−.009”, the “Candidate Marker Antibody Reactivity RBM2” value is given as “.020”, the “Candidate Marker Antibody Reactivity RBM4” value is “.079” and the “Candidate Marker Antibody Reactivity RBM5” value is given as “.003”. In addition, in test [2], the “Candidate Marker Antibody Reactivity RBM6” value is “−.035”; the “Candidate Marker Antibody Reactivity RBM7” value is on record as “−.030”; the “Relative Absorbance ±SE at 405 nm, Candidate Marker RBM1” value is recorded as “.21 ± .06”; the “Relative Absorbance ±SE at 405 nm, Candidate Marker RBM4” value is reported as 2.26 ± .40**. In test [2], the “Relative Absorbance ±SE at 405 nm, Candidate Marker RBM5” value is “.24 ± .23” and the “Relative Absorbance ±SE at 405 nm, Candidate Marker RBM6” value was “.32 ± .07”.
Take HRNYFHRNYF [RBM2]: in test [1], the “Candidate Marker Antibody Reactivity, Serum Sample 1” value was “.26”; the “Candidate Marker Antibody Reactivity, Serum Sample 2” value is recorded as “.05”; the “Candidate Marker Antibody Reactivity, Serum Sample 3” value is given as “.27”; the “Candidate Marker Antibody Reactivity, Serum Sample 4” value is reported as “−.01”. In test [2], the “Candidate Marker Antibody Reactivity RBM1” value was “.034”, the “Candidate Marker Antibody Reactivity RBM2” value was “.219”, the “Candidate Marker Antibody Reactivity RBM4” value is listed as “−.037” and the “Candidate Marker Antibody Reactivity RBM5” value is listed as “.041”. Also, in test [2], the “Candidate Marker Antibody Reactivity RBM6” value was “−.006”; the “Candidate Marker Antibody Reactivity RBM7” value is reported as “.002”; the “Cross-reactivity among the candidate markers” value is “cross-react weakly, but consistently”. In addition, in test [4], the “Candidate Marker Antibody Reactivity RBM1” value is “−.02”, the “Candidate Marker Antibody Reactivity RBM2” value came to 3.34, the “Candidate Marker Antibody Reactivity RBM3” value is “−.07” and the “Candidate Marker Antibody Reactivity RBM4” value is reported as “−.01”. Moreover, in test [4], the “Candidate Marker Antibody Reactivity RBM5” value is given as “.05”; the “Candidate Marker Antibody Reactivity RBM6” value is “−.23”; the “Candidate Marker Antibody Reactivity RBM7” value is on record as “−.05”; the “Antigenicity (measurable antibody response) of free marker peptide” value (shortened to “Antigenicity … of free marker peptide”) is “sufficiently antigenic to produce a measurable and consistent antibody response”. In test [4], the “Interference and cross-reaction with other marker candidates” value is recorded as “did not interfere with each other's immune responses nor cross-react with other marker candidates”.
Regarding YFMYRRYFMYRR [RBM1], in test [1], the “Candidate Marker Antibody Reactivity, Serum Sample 1” value is on record as “.16”; the “Candidate Marker Antibody Reactivity, Serum Sample 2” value is given as “.01”; the “Candidate Marker Antibody Reactivity, Serum Sample 3” value is on record as “.08”; the “Candidate Marker Antibody Reactivity, Serum Sample 4” value is given as “.01”. Further, in test [2], the “Relative Absorbance ±SE at 405 nm, Candidate Marker RBM1” value is given as “.55 ± .15**”; the “Relative Absorbance ±SE at 405 nm, Candidate Marker RBM4” value is reported as “−.11 ± .14”; the “Relative Absorbance ±SE at 405 nm, Candidate Marker RBM5” value is listed as “.11 ± .05”; the “Relative Absorbance ±SE at 405 nm, Candidate Marker RBM6” value is recorded as “.05 ± .07”. Further, in test [4], the “Candidate Marker Antibody Reactivity RBM1” value was “.00”, the “Candidate Marker Antibody Reactivity RBM2” value was “.20”, the “Candidate Marker Antibody Reactivity RBM3” value is “−.05” and the “Candidate Marker Antibody Reactivity RBM4” value was “−.04”. Further, in test [4], the “Candidate Marker Antibody Reactivity RBM5” value was “.1”, the “Candidate Marker Antibody Reactivity RBM6” value is “−.10”, the “Candidate Marker Antibody Reactivity RBM7” value is “.14” and the “Antigenicity … of free marker peptide” value is recorded as “failed to produce measurable immunity”.
As for HWRWRMRMHWRWRMRM [RBM6], in test [1], the “Candidate Marker Antibody Reactivity, Serum Sample 1” value was “.22”; the “Candidate Marker Antibody Reactivity, Serum Sample 2” value is “.24”; the “Candidate Marker Antibody Reactivity, Serum Sample 3” value is “−.09”; the “Candidate Marker Antibody Reactivity, Serum Sample 4” value is “−.03”. For the same substance, in test [2], the “Relative Absorbance ±SE at 405 nm, Candidate Marker RBM1” value is recorded as “.12 ± .03”; the “Relative Absorbance ±SE at 405 nm, Candidate Marker RBM4” value is “.02 ± .04”; the “Relative Absorbance ±SE at 405 nm, Candidate Marker RBM5” value is recorded as −07 ± .15; the “Relative Absorbance ±SE at 405 nm, Candidate Marker RBM6” value was “.84 ± .13**”. In addition, in test [4], the “Candidate Marker Antibody Reactivity RBM1” value is given as “−.07”, the “Candidate Marker Antibody Reactivity RBM2” value was “.39”, the “Candidate Marker Antibody Reactivity RBM3” value is “.02” and the “Candidate Marker Antibody Reactivity RBM4” value is reported as “−.06”. In addition, in test [4], the “Candidate Marker Antibody Reactivity RBM5” value was “.19”, the “Candidate Marker Antibody Reactivity RBM6” value was “−.01”, the “Candidate Marker Antibody Reactivity RBM7” value is listed as “.12” and the “Antigenicity … of free marker peptide” value was “failed to produce measurable immunity”.
On to WPHDMCWP [RBM7], for which, in test [1], the “Candidate Marker Antibody Reactivity, Serum Sample 1” value was “−.11”; the “Candidate Marker Antibody Reactivity, Serum Sample 2” value is reported as “.00”; the “Candidate Marker Antibody Reactivity, Serum Sample 3” value is listed as “.04”; the “Candidate Marker Antibody Reactivity, Serum Sample 4” value is reported as “−.02”. In test [4], the “Candidate Marker Antibody Reactivity RBM1” value is “−.10”, the “Candidate Marker Antibody Reactivity RBM2” value is given as “.22”, the “Candidate Marker Antibody Reactivity RBM3” value is given as “−.06” and the “Candidate Marker Antibody Reactivity RBM4” value is reported as “−.12”. In addition, in test [4], the “Candidate Marker Antibody Reactivity RBM5” value is “.06”; the “Candidate Marker Antibody Reactivity RBM6” value is given as “−.10”; the “Candidate Marker Antibody Reactivity RBM7” value is reported as “.63”; the “Antigenicity … of free marker peptide” value was “sufficiently antigenic to produce a measurable and consistent antibody response”. Further, the “Interference and cross-reaction with other marker candidates” value in test [4] is “did not interfere with each other's immune responses nor cross-react with other marker candidates”.
